Measurements: patent US9029409B2, “Isoxazolines as therapeutic agents” (AbbVie Inc., priority 2011, dated 2015)
pIC50: −log10 of the molar value.

target: T1, recombinant human MMP13 catalytic domain (CD) (Homo sapiens, UniProt P45452); assay: MMP-13 catalytic domain FRET enzyme assay; type: biochemical; settings: recombinant human MMP-13 catalytic domain
T1 construct: catalytic domain (CD) construct encompassing residues 20-274 (SWISS-PROT P45452); made in house
Description: A recombinant human MMP13 catalytic domain (CD) construct encompassing residues 20-274 (SWISS-PROT P45452) was generated by synthetic gene methods and bacterial expression. MMP-13 activity assays were performed using the recombinant human MMP-13 CD at a 0.4 nM concentration and the fluorogenic substrate (QXL-520)-K-P-L-A˜Nva-Dap(5-FAM)-A-R-NH2 (Anaspec cat #60554-01, San Jose, Calif.) at a 0.25 μM concentration in assay buffer containing […], pH 7.5, 10 mM CaCl2, 150 mM NaCl, 0.05% Brij 35. The assay is based on the cleavage of this substrate by MMP-13, resulting in decrease of FRET between the donor-acceptor pair and subsequent fluorescence enhancement. The assays were carried out in 384-well plates (Greiner cat #781076, Germany) for 60 min at RT. After the incubation period, the reaction was quenched by the addition of 5 μL of 500 mM EDTA (100 mM final concentration) (Rankem, Cat #E0120, India) mixed well and the rate of substrate hydrolysis was determined by monitoring change in fluorescence at excitation and emission wavelengths of 485 nm and 535 nm respectively. Fluorescence was measured on a Victor V5 plate reader (Perkin Elmer, Turku, Finland). The test compounds used for assessing the potency of inhibition of MMP-13 activity were dissolved in DMSO (final DMSO concentration in the assay was 5%). Selected compounds were also screened against full length MMP13 (R&D Systems (Cat. No. 511-MM-010), Minneapolis, Minn.) at 2 nM concentration using the same fluorogenic substrate mentioned above. The enzyme was activated using 1 m Mp-aminophenylmercuric acetate—APMA (Cat #A-9563, Sigma, Germany).
Data analysis: The percent inhibition of the enzyme activity in presence of test compounds were calculated using the equation, percent (%) Inhibition=100−[(Fi/Fc)*100] where Fc is the fluorescence corresponding to initial enzyme activity and Fi is the fluorescence corresponding to the enzyme activity in presence of inhibitor. The IC50 values were calculated by fitting the dose-response data to a sigmoidal curve fitting equation using Graph Pad prism software (Version 5, La Jolla, Calif.).
MMP13 Catalytic Domain (CD) Potency of the Described Examples Determined Using Time Resolved Fluorescence Resonance Energy Transfer (FRET) Enzyme Assays: […]

| pIC50 | Compound |
| --- | --- |
| 7.00 to 8.00 | COc1cc(CNC(=O)c2cc(C3=NOC(C4CCN(C(=O)C5CCC5)CC4)C3)nc(C)n2)ccc1F (centres unmarked) |
| > 8.00 | COc1cc(CNC(=O)c2cc(C3=NOC([C@H]4CC[C@H](NC(=O)[C@H](C)O)CC4)C3)nc(C)n2)ccc1F (some centres unmarked) |
| 7.00 to 8.00 | Cc1nc(C(=O)NCc2ccc3c(c2)CCO3)cc(C2=NO[C@H]([C@H]3CO[C@H](CO)CO3)C2)n1 |
| 6.00 to 7.00 | COc1cc(CNC(=O)c2cc(C3=NO[C@@H]([C@H]4CO[C@H](CO)CO4)C3)nc(C)n2)ccc1F [drawing 837] |
| > 8.00 | CNC(=O)[C@H]1CC[C@H](C2CC(c3cc(C(=O)NCc4ccc(F)c(OC)c4)nc(C)n3)=NO2)CC1 (some centres unmarked) |
| 7.00 to 8.00 | COc1cc(CNC(=O)c2cc(C3=NOC(c4cc(-c5nc(C)no5)nn4C)C3)nc(C)n2)ccc1F (centres unmarked) |
| 6.00 to 7.00 | Cc1nc(C(=O)NCc2ccnc3ccccc23)cc(C2=NO[C@@H]([C@H]3CO[C@H](CO)CO3)C2)n1 |
| < 6.00 | Cc1nc(C(=O)NCc2ccc3c(c2)OCCO3)cc(C2=NO[C@@H]([C@H]3CO[C@H](CO)CO3)C2)n1 |
| > 8.00 | Cc1nc(C(=O)NCc2ccc3c(c2)NC(=O)CO3)cc(C2=NOC(c3ccc(=O)n(C)c3)C2)n1 (centres unmarked) |
| 6.00 to 7.00 | Cc1nc(C(=O)NCc2ccc(=O)n(C)c2)cc(C2=NO[C@@H]([C@H]3CO[C@H](CO)CO3)C2)n1 |
| 7.00 to 8.00 | COc1cc(CNC(=O)c2cc(C3=NOC(c4ccc(C(=O)NCCO)cc4)C3)nc(C)n2)ccc1F (centres unmarked) |
| 7.00 to 8.00 | COc1cc(CNC(=O)c2cc(C3=NOC(CC4CCN(C(=O)CO)CC4)C3)nc(C)n2)ccc1F (centres unmarked) |
| > 8.00 | COc1cc(CNC(=O)c2cc(C3=NOC(C4CCC(O)CC4)C3)nc(C)n2)ccc1F (centres unmarked) |
| 7.00 to 8.00 | COc1cc(CNC(=O)c2cc(C3=NOC(C4CCN(C(=O)C5CC5)CC4)C3)nc(C)n2)ccc1F (centres unmarked) [drawing 875] |
| > 8.00 | COc1cc(CNC(=O)c2cc(C3=NOC(c4ccc(=O)n(C5CC5)c4)C3)nc(C)n2)ccc1F (centres unmarked) |
| 7.00 to 8.00 | Cc1nc(C(=O)NCc2ccc(F)cc2)cc(C2=NO[C@H]([C@H]3CO[C@H](CO)CO3)C2)n1 |
| 7.00 to 8.00 | COc1ccc(CNC(=O)c2cc(C3CC(c4ccc(OCCO)cc4)=NO3)nc(C)n2)cc1 (centres unmarked) |
| > 8.00 | Cc1nc(C(=O)NCc2ccc3c(c2)NC(=O)CO3)cc(C2=NOC(c3ccc(=O)n(C4CC4)c3)C2)n1 (centres unmarked) |
| 6.00 to 7.00 | COc1cc(CNC(=O)c2cc(C3=NOC(c4cc(C(N)=O)nn4C)C3)nc(C)n2)ccc1F (centres unmarked) |
| > 8.00 | CNC(=O)N1CCC(C2CC(c3cc(C(=O)NCc4ccc(F)c(OC)c4)nc(C)n3)=NO2)CC1 (centres unmarked) |
| > 8.00 | Cc1nc(C(=O)NCc2ccc(F)cc2)cc(C2=NOC(C3CCN(S(C)(=O)=O)CC3)C2)n1 (centres unmarked) |
| 6.00 to 7.00 | COc1cc(CNC(=O)c2cc(C3=NO[C@@H]([C@@H]4CO[C@@H](CO)CO4)C3)nc(C)n2)ccc1F |
| < 6.00 | COc1ccc(CNC(=O)c2cc(C3=NOC(c4cnccn4)C3)ccn2)cc1 (centres unmarked) |

| pIC50 | Compound |
| --- | --- |
| > 8.00 | CNC(=O)c1ccc(C2CC(c3cc(C(=O)NCc4ccc(F)c(OC)c4)nc(C)n3)=NO2)cc1 (centres unmarked) |
| 7.00 to 8.00 | Cc1nc(C(=O)NCc2ccc(F)c(F)c2)cc(C2=NOC(C3CCN(S(C)(=O)=O)CC3)C2)n1 (centres unmarked) |
| 7.00 to 8.00 | COc1cc(CNC(=O)c2cc(C3=NOC(c4ccc(=O)n(CCO)c4)C3)nc(C)n2)ccc1F (centres unmarked) |
| 7.00 to 8.00 | COc1cc(CNC(=O)c2cc(C3=NO[C@@H](c4ccc(=O)n(C5CC5)c4)C3)nc(C)n2)ccc1F |
| 7.00 to 8.00 | COc1cc(CNC(=O)c2cc(C3=NOC(C4CCN(C(=O)Nc5ccon5)CC4)C3)nc(C)n2)ccc1F (centres unmarked) |
| 7.00 to 8.00 | COc1cc(CNC(=O)c2cc(C3=NOC(CC4CCN(S(C)(=O)=O)CC4)C3)nc(C)n2)ccc1F (centres unmarked) |
| > 8.00 | COc1cc(CNC(=O)c2cc(C3=NOC(c4ccc(C(C)=O)cn4)C3)nc(C)n2)ccc1F (centres unmarked) |
| 7.00 to 8.00 | CC(=O)N[C@H]1CC[C@H](C2CC(c3cc(C(=O)NCc4ccc(F)c(F)c4)nc(C)n3)=NO2)CC1 (some centres unmarked) |
| < 6.00 | COc1ccc(CNC(=O)c2cc(C3=NOC(c4nn[nH]n4)C3)nc(C)n2)cc1 (centres unmarked) |
| > 8.00 | COc1cccc(CNC(=O)c2cc(C3=NOC(C4CCN(S(C)(=O)=O)CC4)C3)nc(C)n2)c1 (centres unmarked) |
| 7.00 to 8.00 | COc1ccc(CNC(=O)c2cc(C3=NOC(c4ccc(OCCO)cc4)C3)nc(C)n2)cc1 (centres unmarked) |
| < 6.00 | COc1cc(CNC(=O)c2cc(C3=NOC(c4cnn(CCO)c4)C3)nc(C)n2)ccc1F (centres unmarked) |
| > 8.00 | COc1cc(CNC(=O)c2cc(C3=NOC(c4ccc(CO)cn4)C3)nc(C)n2)ccc1F (centres unmarked) |
| 7.00 to 8.00 | COc1cc(CNC(=O)c2cc(C3=NOC(C4CCN(C(=O)Nc5nccs5)CC4)C3)nc(C)n2)ccc1F (centres unmarked) |
| > 8.00 | COc1cc(CNC(=O)c2cc(C3=NOC(C4CCN(C(=O)NCCO)CC4)C3)nc(C)n2)ccc1F (centres unmarked) [drawing 1067] |
| 7.00 to 8.00 | COc1cc(CNC(=O)c2cc(C3=NOC(c4cn[nH]c4)C3)nc(C)n2)ccc1F (centres unmarked) |
| > 8.00 | COc1cc(CNC(=O)c2cc(C3=NOC(c4ccncc4)C3)nc(C)n2)ccc1F (centres unmarked) |
| > 8.00 | COc1cc(CNC(=O)c2cc(C3=NOC(c4ccc(CO)cc4)C3)nc(C)n2)ccc1F (centres unmarked) |
| 6.00 to 7.00 | COc1ccc(CNC(=O)c2cc(C3=NOC(c4ccc(N(C)C)cc4)C3)nc(C)n2)cc1 (centres unmarked) |
| 6.00 to 7.00 | Cc1nc(C(=O)NCc2ccc3c(c2)NC(=O)CC3)cc(C2=NO[C@@H]([C@H]3CO[C@H](CO)CO3)C2)n1 |
| > 8.00 | CNC(=O)N[C@H]1CC[C@H](C2CC(c3cc(C(=O)NCc4ccc(F)c(OC)c4)nc(C)n3)=NO2)CC1 (some centres unmarked) |
| 6.00 to 7.00 | COc1ccc(CNC(=O)c2cc(C3=NOC(c4ccc(N5CCCCC5)cc4)C3)nc(C)n2)cc1 (centres unmarked) |
| > 8.00 | Cc1nc(C(=O)NCc2ccc3c(c2)NC(=O)CO3)cc(C2=NO[C@H]([C@H]3CC[C@H](NC(=O)[C@H](C)O)CC3)C2)n1 |

| pIC50 | Compound |
| --- | --- |
| 7.00 to 8.00 | COc1cc(CNC(=O)c2cc(C3=NOC(C4CCN(C(=O)CC#N)CC4)C3)nc(C)n2)ccc1F (centres unmarked) [drawing 881] |
| 7.00 to 8.00 | COc1cc(CNC(=O)c2cc(C3=NOC(C4CCN(C(=O)CNC(C)=O)CC4)C3)nc(C)n2)ccc1F (centres unmarked) [drawing 1064] |
| 7.00 to 8.00 | Cc1nc(C(=O)NCc2ccc(F)cc2)cc(C2=NOC(c3ccc(C#N)nn3)C2)n1 (centres unmarked) |
| < 6.00 | COc1cccc(CNC(=O)c2cc(C3=NO[C@@H]([C@H]4CO[C@H](CO)CO4)C3)nc(C)n2)c1 |
| > 8.00 | COc1cc(CNC(=O)c2cc(C3=NOC(C4CCN(S(C)(=O)=O)CC4)C3)nc(C)n2)ccc1F (centres unmarked) |
| < 6.00 | COc1cc([C@H](C)NC(=O)c2cc(C3=NOC(c4ccccc4)C3)nc(C)n2)ccc1F (some centres unmarked) |
| 7.00 to 8.00 | CC(=O)N1CCC(C2CC(c3cc(C(=O)NCc4ccc(F)c(Cl)c4)nc(C)n3)=NO2)CC1 (centres unmarked) |
| 7.00 to 8.00 | COc1cc(CNC(=O)c2cc(C3=NO[C@@H]([C@H]4CC[C@H](NC(=O)[C@H](C)O)CC4)C3)nc(C)n2)ccc1F |
| 6.00 to 7.00 | Cc1nc(C(=O)NCc2ccc(F)c(F)c2)cc(C2=NO[C@@H](c3ccc(=O)n(C)c3)C2)n1 |
| > 8.00 | Cc1nc(C(=O)NCc2ccc(F)c(C)c2)cc(C2=NOC(c3ccc(=O)n(C)c3)C2)n1 (centres unmarked) [drawing 990] |
| > 8.00 | COc1cc(CNC(=O)c2cc(C3=NOC(c4ccc(CN5CCSCC5)cc4)C3)nc(C)n2)ccc1F (centres unmarked) |
| > 8.00 | COc1cc(CNC(=O)c2cc(C3=NOC([C@H]4CC[C@H](NC(=O)CC#N)CC4)C3)nc(C)n2)ccc1F (some centres unmarked) |
| 7.00 to 8.00 | Cc1nc(C(=O)NCc2ccc(=O)n(C)c2)cc(C2=NO[C@H]([C@H]3CO[C@H](CO)CO3)C2)n1 |
| 7.00 to 8.00 | COc1cc(CNC(=O)c2cc(C3=NOC(c4cnc5c(cnn5C)c4)C3)nc(C)n2)ccc1F (centres unmarked) |
| > 8.00 | COc1cc(CNC(=O)c2cc(C3=NOC(C4CCN(C(=O)N(C)C)CC4)C3)nc(C)n2)ccc1F (centres unmarked) [drawing 1061] |
| > 8.00 | COc1cc(CNC(=O)c2cc(C3=NOC(c4ccc(-c5nc(C)no5)nn4)C3)nc(C)n2)ccc1F (centres unmarked) |
| 6.00 to 7.00 | CC(=O)N[C@H]1CC[C@H](C2CC(c3cc(C(=O)NCc4ccnc5ccccc45)nc(C)n3)=NO2)CC1 (some centres unmarked) |
| 7.00 to 8.00 | CC(=O)N1CCC(C2CC(c3cc(C(=O)NCc4ccc(F)c(F)c4)nc(C)n3)=NO2)CC1 (centres unmarked) |
| > 8.00 | COc1cc(CNC(=O)c2cc(C3=NOC([C@H]4CC[C@H](NC(=O)N(C)CCO)CC4)C3)nc(C)n2)ccc1F (some centres unmarked) |
| 7.00 to 8.00 | COc1cc(CNC(=O)c2cc(C3=NO[C@H]([C@H]4CO[C@H](C(C)(C)O)CO4)C3)nc(C)n2)ccc1F |
| 7.00 to 8.00 | Cc1nc(C(=O)NCc2ccc3c(c2)NC(=O)CO3)cc(C2=NO[C@@H]([C@H]3CO[C@H](CO)CO3)C2)n1 |
| > 8.00 | COc1cc(CNC(=O)c2cc(C3=NOC([C@H]4CC[C@H](CNC(=O)CO)CC4)C3)nc(C)n2)ccc1F (some centres unmarked) |
